Data set [1] in a line: Drug uptake in human SY-cells xenografted mouse tumor at 20 MBq, iv after 50 to 60 mins by positron emission tomography. It is filed as ADME, organism-based, Neoplasm. Conditions: in vivo. A general note: In xenograft studies the graft and the host belong to different species; call rule not given here.
Data set [2] is described as follows: Drug uptake in human SY-cells xenografted mouse tumor at 200 kBq, iv after 15 to 25 mins by positron emission tomography. The data set is classed as ADME, organism-based, Neoplasm. Conditions: in vivo.

As to `CC([11CH3])(N)C(=O)O` (stereo not drawn), the Drug uptake entry in data set [1] is listed as “Active”.

For the compound `OC[C@H]1O[C@@H](O)[C@H]([18F])[C@@H](O)[C@@H]1O` [FLUDEOXYGLUCOSE-F18], in data set [2], the Drug uptake entry is reported as “Active”.

For the compound `[11CH3]SCC[C@H](N)C(=O)O`, in data set [1], the Drug uptake entry is on record as “Active”.

Values taken from ChEMBL document CHEMBL1770151, “An efficient and expedient method for the synthesis of 11C-labeled α-aminoisobutyric acid: a tumor imaging agent potentially useful for cancer diagnosis” (Bioorg Med Chem Lett, 2011).
